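Where inhibition never reached the appropriate level, the endpoint shown equals the highest concentration tested. Otherwise, values were interpolated linearly from a five-concentration, 48-hour dose response in 96-well plates. TGI is the concentration that stops growth completely.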
What was measured:
Test in all cases: growth of human tumour cells (NCI), 48 h
SF-539 CNS = test system: SF-539 CNS
ACHN renal = test system: ACHN renal
HCC-2998 colon = test system: HCC-2998 colon
DMS 114 small cell lung = test system: DMS 114 small cell lung
KM12 colon = test system: KM12 colon
SW-620 colon = test system: SW-620 colon
A549 NSCLC = test system: A549 NSCLC
RXF 393 renal = test system: RXF 393 renal
NCI-H460 lung = test system: NCI-H460 lung
OVCAR-8 ovarian = test system: OVCAR-8 ovarian
A498 renal = test system: A498 renal
SNB-78 CNS = test system: SNB-78 CNS
OVCAR-5 ovarian = test system: OVCAR-5 ovarian
HOP-92 NSCLC = test system: HOP-92 NSCLC
NCI-H23 lung = test system: NCI-H23 lung
SK-MEL-28 melanoma = test system: SK-MEL-28 melanoma
COLO 205 colon = test system: COLO 205 colon
SNB-19 CNS = test system: SNB-19 CNS
SK-OV-3 ovarian = test system: SK-OV-3 ovarian
K-562 leukemia = test system: K-562 leukemia
LOX IMVI melanoma = test system: LOX IMVI melanoma
UACC-62 melanoma = test system: UACC-62 melanoma
M14 melanoma = test system: M14 melanoma
NCI-H226 lung = test system: NCI-H226 lung
IGROV1 ovarian = test system: IGROV1 ovarian
HCT-116 colon = test system: HCT-116 colon
DLD-1 colon = test system: DLD-1 colon
TK-10 renal = test system: TK-10 renal
HL-60(TB) leukemia = test system: HL-60(TB) leukemia
SF-295 CNS = test system: SF-295 CNS
MOLT-4 leukemia = test system: MOLT-4 leukemia
M19-MEL melanoma = test system: M19-MEL melanoma
CCRF-CEM leukemia = test system: CCRF-CEM leukemia
MALME-3M melanoma = test system: MALME-3M melanoma
CAKI-1 renal = test system: CAKI-1 renal
LXFL 529 NSCLC = test system: LXFL 529 NSCLC
RPMI-8226 leukemia = test system: RPMI-8226 leukemia
UACC-257 melanoma = test system: UACC-257 melanoma
SF-268 CNS = test system: SF-268 CNS
UO-31 renal = test system: UO-31 renal
SK-MEL-2 melanoma = test system: SK-MEL-2 melanoma
HT29 colon = test system: HT29 colon
HCT-15 colon = test system: HCT-15 colon
SN12C renal = test system: SN12C renal
U251 CNS = test system: U251 CNS
SK-MEL-5 melanoma = test system: SK-MEL-5 melanoma
OVCAR-4 ovarian = test system: OVCAR-4 ovarian
HOP-62 NSCLC = test system: HOP-62 NSCLC
OVCAR-3 ovarian = test system: OVCAR-3 ovarian
XF 498 CNS = test system: XF 498 CNS
KM20L2 colon = test system: KM20L2 colon
786-0 renal = test system: 786-0 renal
EKVX NSCLC = test system: EKVX NSCLC
NCI-H522 lung = test system: NCI-H522 lung
SNB-75 CNS = test system: SNB-75 CNS
HOP-18 NSCLC = test system: HOP-18 NSCLC
SR leukemia = test system: SR leukemia
DMS 273 small cell lung = test system: DMS 273 small cell lung

Measured: TGI

CC1=NN(C(=O)Cc2ccccc2)C(=O)/C1=C\c1ccc(O)cc1
not listed: SNB-75 CNS | HOP-18 NSCLC | SR leukemia | DMS 273 small cell lung
> 100 µM: all other assays above

O=C1NC2=C(CCCCC/C2=N\O)C12CCCCCC2
not listed: HCC-2998 colon | NCI-H226 lung | KM20L2 colon
> 100 µM: all other assays above

Reference: PubChem BioAssay (NCI)
